# Test results: ChEMBL document CHEMBL1201862, “PubChem BioAssay data set” (2004)
# The source made the active and inactive calls.
# Tests used:
# Cytochrome P450 3A4 [1] = biological target: T1, Cytochrome P450 3A4 (Homo sapiens, UniProt P08684);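 further: CYP3A4 tested as one member of a cytochrome P450 panel screen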
# [2] = biological target: T2, DNA repair and recombination protein RAD54-like (Homo sapiens, UniProt Q92698); assay: RAD54 Holliday junction migration blockers – biochemical, fluorescence, cherry-picked samples, dose series, confirmation (AID 651657); format: functional
# T2 sequence (Q92698 whole entry): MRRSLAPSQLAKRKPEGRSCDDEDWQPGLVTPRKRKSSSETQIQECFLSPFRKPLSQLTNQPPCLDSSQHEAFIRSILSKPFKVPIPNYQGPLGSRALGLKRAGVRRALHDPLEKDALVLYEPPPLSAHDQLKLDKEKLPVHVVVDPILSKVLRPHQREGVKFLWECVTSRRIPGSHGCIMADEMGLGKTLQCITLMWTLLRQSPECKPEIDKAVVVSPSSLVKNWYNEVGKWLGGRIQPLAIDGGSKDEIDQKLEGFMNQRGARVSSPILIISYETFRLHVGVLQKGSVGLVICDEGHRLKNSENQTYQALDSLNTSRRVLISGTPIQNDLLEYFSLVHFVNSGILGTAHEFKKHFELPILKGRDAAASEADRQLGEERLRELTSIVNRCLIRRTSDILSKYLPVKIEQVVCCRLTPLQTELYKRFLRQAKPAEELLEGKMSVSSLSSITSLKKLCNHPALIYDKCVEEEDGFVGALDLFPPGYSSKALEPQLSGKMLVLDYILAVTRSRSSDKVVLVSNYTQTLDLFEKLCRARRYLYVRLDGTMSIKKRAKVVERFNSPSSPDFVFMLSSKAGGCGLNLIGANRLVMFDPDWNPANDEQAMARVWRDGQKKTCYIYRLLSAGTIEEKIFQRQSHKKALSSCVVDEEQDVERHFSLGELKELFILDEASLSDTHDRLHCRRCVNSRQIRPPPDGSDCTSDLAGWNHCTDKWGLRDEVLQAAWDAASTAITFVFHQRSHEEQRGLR
# Estrogen receptor beta = Estrogen receptor beta (Homo sapiens, UniProt Q92731);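 further: recombinant ER-beta bound to coactivator SRC1 peptide in presence of estradiol agonist; inhibitors block coactivator peptide binding and lower the FRET signal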
# Sequence of Estrogen receptor beta (Q92731 whole entry): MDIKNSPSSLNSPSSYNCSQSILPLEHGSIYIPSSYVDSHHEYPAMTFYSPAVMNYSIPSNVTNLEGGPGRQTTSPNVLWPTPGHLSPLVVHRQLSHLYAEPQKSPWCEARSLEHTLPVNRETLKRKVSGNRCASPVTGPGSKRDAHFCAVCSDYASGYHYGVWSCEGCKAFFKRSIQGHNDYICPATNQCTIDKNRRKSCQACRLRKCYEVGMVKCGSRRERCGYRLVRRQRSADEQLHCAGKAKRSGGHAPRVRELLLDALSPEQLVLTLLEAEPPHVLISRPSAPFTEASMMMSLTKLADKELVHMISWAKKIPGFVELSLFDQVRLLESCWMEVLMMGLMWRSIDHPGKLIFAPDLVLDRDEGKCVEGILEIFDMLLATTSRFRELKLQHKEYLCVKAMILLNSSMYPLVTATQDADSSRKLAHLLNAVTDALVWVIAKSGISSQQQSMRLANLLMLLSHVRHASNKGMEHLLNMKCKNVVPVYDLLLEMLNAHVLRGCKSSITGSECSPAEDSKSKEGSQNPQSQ
# Vero [3] = assay: viability of Vero cells under compound – cytotoxicity control for flavivirus capping enzyme inhibitors (AID 588742); format: functional; conditions: Chlorocebus sabaeus
# [4] = biological target: Eukaryotic translation initiation factor 4E (Mus musculus, UniProt P63073); assay: blockers of eIF4G binding by eIF4E – biochemical, TR-FRET, dose response (AID 855); format: functional;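 further: potency for disrupting eIF4E binding to eIF4GI seen as loss of FRET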
# Sequence of Eukaryotic translation initiation factor 4E (P63073 whole entry): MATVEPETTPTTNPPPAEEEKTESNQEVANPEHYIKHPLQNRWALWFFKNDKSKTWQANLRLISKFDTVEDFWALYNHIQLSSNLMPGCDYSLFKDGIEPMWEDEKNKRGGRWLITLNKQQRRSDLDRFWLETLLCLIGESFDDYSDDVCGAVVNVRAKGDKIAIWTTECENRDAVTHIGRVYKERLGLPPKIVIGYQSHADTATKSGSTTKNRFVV
# Vero [5] = assay: cells; format: functional, cell-based; conditions: Chlorocebus sabaeus
# [6] = viability of uninfected HEp-2 cells – cell-based, HTS, cytotoxicity control for RSV inhibitor project, dose response (AID 2410); format: functional; conditions: human respiratory syncytial virus
# Cytochrome P450 1A2 = biological target: T3, Cytochrome P450 1A2 (Homo sapiens, UniProt P05177);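 further: PubChem cytochrome P450 panel assay, CYP1A2 panel member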
# T3 sequence (P05177 whole entry): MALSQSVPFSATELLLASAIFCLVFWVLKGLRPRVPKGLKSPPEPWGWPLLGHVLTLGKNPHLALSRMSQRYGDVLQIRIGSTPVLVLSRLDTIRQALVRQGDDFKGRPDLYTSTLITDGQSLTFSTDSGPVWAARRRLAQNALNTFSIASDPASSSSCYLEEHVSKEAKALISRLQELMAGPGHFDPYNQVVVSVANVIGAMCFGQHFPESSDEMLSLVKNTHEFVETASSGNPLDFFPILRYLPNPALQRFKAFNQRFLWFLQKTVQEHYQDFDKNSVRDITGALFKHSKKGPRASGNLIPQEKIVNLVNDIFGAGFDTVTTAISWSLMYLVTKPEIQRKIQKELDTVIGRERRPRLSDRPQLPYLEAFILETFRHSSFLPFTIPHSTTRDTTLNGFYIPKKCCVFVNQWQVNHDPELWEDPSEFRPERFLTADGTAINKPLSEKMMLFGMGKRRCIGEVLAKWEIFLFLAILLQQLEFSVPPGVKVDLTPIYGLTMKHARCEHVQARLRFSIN
# [7] = biological target: T4, High affinity choline transporter 1 (Homo sapiens, UniProt Q9GZV3); assay: human choline transporter blockers, potency – cell-based, 5-point CRC, membrane potential dye, dose response (AID 504840); format: functional
# T4 sequence (Q9GZV3 whole entry): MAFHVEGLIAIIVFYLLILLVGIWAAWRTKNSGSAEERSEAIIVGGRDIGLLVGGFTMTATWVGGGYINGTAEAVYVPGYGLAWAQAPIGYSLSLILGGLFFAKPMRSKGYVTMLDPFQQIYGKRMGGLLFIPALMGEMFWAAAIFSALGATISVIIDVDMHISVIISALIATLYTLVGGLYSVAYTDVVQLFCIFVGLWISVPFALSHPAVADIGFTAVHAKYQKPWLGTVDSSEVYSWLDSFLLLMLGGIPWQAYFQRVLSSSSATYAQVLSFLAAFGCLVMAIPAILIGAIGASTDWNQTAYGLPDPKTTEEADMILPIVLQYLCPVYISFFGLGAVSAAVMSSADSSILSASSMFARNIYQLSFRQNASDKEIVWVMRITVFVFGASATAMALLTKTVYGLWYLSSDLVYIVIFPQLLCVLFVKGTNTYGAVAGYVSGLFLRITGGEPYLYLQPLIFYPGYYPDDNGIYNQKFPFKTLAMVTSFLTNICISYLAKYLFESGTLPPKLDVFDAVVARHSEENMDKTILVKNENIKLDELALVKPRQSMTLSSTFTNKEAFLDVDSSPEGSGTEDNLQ
# [8] = OVCAR8 cell viability loss – plate reader, dry powder samples, PAX8 project, dose response (AID 743197); format: functional, cell-based; conditions: OVCAR-8
# Paired box protein Pax-8 = Paired box protein Pax-8 (Homo sapiens, UniProt Q06710); assay: PAX8 transcriptional activity inhibition in RMG-I – RMG-I cells, luciferase, cherry-pick, dose response (AID 687027); format: functional, cell-based;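 further: luciferase reporter driven by Pax8 target thyroperoxidase promoter measured by SteadyGlo luminescence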
# Sequence of Paired box protein Pax-8 (Q06710 whole entry, the tested form may be a part): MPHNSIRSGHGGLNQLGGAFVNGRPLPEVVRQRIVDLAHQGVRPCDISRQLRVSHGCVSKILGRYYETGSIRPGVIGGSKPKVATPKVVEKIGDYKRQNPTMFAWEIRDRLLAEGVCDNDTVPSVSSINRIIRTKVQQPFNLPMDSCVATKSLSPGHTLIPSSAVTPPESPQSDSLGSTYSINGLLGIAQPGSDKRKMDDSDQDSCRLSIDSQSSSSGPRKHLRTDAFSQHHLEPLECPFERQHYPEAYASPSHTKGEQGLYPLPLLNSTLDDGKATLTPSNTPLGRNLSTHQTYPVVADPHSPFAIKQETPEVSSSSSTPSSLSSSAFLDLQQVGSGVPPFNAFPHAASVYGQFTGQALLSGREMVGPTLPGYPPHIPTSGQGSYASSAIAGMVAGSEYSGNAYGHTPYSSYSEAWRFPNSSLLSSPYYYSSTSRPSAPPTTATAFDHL
# [9] = blockers of HIV-1 ZM109 envelope-driven cell-cell fusion – HeLa effector, CEM target cells, luciferase, cherry-pick, dose response (AID 652058); format: functional, cell-based;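 further: luciferase signal from HIV-1 Env mediated cell-cell fusion of effector and target cells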
# [10] = A549 cell cytotoxicity, dose response, cytotoxicity control, plate reader, cherry-pick, antagonist series (AID 743412); format: functional, cell-based
# [11] = blockers of bursicon-stimulated LGR2 cAMP reporter – cell-based, HEK293, CRE-luciferase reporter, cherry pick, set 2, dose response (AID 743343); format: functional;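 further: transfected cells were stimulated with diluted bursicon conditioned medium after compound addition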
# [12] = blockade of melanocortin 4 receptor signaling – cell-based, plate reader, cherry pick, counter-screen for LGR2 antagonist project, dose response (AID 743444); format: functional;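 further: transfected HEK 293 cells stimulated with alpha-MSH peptide; potency of inhibitors of the alpha-MSH evoked signal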
# [13] = biological target: T5, Type-1 angiotensin II receptor (Homo sapiens, UniProt P30556); assay: antagonism of angiotensin II type 1 receptor – cell-based, uHTS hits, selectivity assay for APJ receptor antagonist project, dose response (AID 463214); format: functional;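 further: antagonist potency against angiotensin II stimulated AT1 response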
# T5 sequence (P30556 whole entry): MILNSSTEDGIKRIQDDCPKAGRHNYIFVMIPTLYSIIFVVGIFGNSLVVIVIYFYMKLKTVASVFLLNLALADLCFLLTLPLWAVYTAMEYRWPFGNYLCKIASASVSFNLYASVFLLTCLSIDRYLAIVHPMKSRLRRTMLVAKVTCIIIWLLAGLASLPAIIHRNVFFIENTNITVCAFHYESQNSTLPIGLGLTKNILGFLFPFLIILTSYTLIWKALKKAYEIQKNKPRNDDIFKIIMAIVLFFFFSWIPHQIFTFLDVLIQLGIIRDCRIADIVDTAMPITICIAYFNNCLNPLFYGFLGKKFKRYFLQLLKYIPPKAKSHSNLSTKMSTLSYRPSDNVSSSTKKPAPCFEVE
# Beta-galactosidase = Beta-galactosidase (Escherichia coli, UniProt Q8VNN2); assay: PubChem AID 485352; format: functional
# Vero [14] = assay: cells; format: functional; conditions: Chlorocebus sabaeus
# [15] = HIV-1 AD8 envelope cell-cell fusion blockers – cherry-pick, dose response (AID 652062); format: functional, cell-based;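 further: luciferase signal from cell-cell fusion driven by HIV-1 clade B AD8 Env; potency is for inhibitors of fusion seen as a drop in luminescence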
# [16] = blockers of HIV-1 envelope-mediated cell-cell fusion – cherry-pick, dose response (AID 652057); format: functional, cell-based
# Cytochrome P450 3A4 [17] = biological target: T1, Cytochrome P450 3A4; remark: listed apart in the source
# Cytochrome P450 2C9 = Cytochrome P450 2C9 (Homo sapiens, UniProt P11712)
# Cytochrome P450 2C19 = Cytochrome P450 2C19 (Homo sapiens, UniProt P33261); assay: Cytochrome panel assay with activity outcomes. Panel member name: p450-cyp2c19 Compounds with AC50 equal or less than 10 uM are considered active; format: functional; conditions: read-out: AC50
# [18] = biological target: T6, Voltage-gated N-type calcium channel alpha-1B subunit/Amyloid beta A4 precursor protein-binding family A member 1 (Homo sapiens, UniProt Q00975+Q02410); format: protein assay
# T6 sequence (Q00975 whole entry): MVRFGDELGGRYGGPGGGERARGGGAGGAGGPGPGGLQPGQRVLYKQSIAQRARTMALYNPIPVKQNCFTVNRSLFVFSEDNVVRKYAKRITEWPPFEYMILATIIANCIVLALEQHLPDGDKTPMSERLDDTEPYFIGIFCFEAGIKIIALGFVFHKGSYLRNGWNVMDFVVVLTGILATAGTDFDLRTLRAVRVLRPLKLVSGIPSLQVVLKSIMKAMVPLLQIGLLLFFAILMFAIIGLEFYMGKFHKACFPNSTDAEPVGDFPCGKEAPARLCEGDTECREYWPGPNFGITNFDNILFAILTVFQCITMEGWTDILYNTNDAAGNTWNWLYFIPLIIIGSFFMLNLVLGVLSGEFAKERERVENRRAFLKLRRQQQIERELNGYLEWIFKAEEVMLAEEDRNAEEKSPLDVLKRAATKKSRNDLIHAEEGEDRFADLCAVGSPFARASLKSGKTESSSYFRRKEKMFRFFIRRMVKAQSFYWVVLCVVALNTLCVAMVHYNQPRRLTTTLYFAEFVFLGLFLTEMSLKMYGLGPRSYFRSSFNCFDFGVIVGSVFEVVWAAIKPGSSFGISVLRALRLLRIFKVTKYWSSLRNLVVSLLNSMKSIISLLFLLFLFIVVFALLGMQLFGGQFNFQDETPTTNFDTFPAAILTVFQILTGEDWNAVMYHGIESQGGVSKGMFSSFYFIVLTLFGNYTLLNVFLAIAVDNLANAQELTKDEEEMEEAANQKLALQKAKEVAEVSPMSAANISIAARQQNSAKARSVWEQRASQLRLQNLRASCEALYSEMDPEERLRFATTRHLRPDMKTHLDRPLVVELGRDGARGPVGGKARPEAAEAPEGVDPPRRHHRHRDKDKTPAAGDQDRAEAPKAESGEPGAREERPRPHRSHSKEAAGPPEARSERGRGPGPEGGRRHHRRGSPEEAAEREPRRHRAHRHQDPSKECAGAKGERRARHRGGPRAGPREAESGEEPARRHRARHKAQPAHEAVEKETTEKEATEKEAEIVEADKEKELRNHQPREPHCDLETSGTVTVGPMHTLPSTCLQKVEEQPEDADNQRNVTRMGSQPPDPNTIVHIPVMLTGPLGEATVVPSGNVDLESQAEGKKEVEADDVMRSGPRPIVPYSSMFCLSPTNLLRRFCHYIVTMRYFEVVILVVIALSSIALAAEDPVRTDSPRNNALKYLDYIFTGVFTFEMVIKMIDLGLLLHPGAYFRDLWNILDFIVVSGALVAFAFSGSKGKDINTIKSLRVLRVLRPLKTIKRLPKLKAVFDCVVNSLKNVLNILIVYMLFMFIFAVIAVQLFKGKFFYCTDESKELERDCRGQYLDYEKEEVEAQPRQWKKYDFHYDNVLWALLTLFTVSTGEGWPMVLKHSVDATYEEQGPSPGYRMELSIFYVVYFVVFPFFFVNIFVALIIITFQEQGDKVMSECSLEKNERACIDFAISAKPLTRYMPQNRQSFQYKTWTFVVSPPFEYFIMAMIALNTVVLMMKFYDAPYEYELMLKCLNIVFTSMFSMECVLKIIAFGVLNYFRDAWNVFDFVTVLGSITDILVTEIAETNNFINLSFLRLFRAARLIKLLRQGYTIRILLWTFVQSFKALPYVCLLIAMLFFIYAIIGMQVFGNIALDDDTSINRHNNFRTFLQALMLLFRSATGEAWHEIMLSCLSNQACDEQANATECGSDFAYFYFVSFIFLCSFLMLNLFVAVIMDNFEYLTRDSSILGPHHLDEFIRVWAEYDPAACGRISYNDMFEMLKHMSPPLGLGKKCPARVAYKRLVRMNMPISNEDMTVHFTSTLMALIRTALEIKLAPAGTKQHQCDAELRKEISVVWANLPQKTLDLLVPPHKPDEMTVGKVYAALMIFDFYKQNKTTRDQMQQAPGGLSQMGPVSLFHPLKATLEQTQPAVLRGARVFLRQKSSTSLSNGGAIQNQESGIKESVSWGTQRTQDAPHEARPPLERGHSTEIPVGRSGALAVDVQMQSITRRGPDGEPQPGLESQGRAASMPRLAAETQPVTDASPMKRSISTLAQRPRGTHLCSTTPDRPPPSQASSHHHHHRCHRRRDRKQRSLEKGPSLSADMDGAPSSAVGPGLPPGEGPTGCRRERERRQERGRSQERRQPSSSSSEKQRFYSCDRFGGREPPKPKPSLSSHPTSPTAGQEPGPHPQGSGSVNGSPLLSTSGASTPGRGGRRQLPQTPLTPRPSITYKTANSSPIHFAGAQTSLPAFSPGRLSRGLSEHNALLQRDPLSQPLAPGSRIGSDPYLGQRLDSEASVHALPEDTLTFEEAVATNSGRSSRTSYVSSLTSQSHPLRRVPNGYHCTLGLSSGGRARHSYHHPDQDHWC
# T6 sequence (Q02410 whole entry): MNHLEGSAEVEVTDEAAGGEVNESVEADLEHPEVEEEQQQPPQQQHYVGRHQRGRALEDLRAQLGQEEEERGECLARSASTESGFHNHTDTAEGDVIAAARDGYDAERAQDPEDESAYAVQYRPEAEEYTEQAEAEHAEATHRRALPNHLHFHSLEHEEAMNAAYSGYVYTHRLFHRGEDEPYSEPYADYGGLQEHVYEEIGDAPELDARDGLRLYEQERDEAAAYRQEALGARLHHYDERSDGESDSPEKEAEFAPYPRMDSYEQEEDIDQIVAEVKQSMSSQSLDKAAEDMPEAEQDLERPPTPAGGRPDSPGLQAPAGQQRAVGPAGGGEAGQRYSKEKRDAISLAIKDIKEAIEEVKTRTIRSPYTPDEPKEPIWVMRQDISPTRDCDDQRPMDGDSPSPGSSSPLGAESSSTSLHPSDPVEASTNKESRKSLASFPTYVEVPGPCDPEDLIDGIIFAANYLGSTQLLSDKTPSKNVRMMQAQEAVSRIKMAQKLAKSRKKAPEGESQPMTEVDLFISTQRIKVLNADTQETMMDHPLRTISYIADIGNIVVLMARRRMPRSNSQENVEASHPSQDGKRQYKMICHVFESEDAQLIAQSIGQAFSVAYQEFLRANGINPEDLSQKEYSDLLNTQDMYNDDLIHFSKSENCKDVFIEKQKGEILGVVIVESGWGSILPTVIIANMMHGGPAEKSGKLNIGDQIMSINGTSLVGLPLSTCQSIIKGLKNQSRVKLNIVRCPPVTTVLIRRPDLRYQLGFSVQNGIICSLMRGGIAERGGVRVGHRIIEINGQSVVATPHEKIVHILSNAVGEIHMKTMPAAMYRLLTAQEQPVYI
# [19] = biological target: T6, Voltage-gated N-type calcium channel alpha-1B subunit/Amyloid beta A4 precursor protein-binding family A member 1; format: protein assay; remark: listed apart in the source
# T1 sequence (P08684 whole entry): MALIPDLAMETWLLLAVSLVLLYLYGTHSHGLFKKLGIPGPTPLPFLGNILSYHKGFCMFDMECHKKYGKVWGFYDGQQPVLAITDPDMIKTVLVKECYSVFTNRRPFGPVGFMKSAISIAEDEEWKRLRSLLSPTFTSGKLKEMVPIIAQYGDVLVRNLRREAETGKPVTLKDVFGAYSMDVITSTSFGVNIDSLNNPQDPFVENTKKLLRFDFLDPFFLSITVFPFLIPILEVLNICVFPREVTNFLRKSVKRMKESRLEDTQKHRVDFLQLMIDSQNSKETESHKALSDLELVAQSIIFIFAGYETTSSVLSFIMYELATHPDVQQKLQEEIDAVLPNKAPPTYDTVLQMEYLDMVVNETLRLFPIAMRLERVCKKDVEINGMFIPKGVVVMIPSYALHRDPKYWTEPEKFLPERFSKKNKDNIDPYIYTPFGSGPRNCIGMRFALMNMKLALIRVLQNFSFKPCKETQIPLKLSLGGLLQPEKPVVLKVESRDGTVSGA
compound,measurement,setting,value
Cc1cc2ccccn2c1C(=O)c1ccc(Cl)cc1,AC50,Cytochrome P450 3A4 [1],inconclusive
CCN1CCc2c(sc(NC(=O)c3ccc(C(=O)c4ccccc4)cc3)c2C(N)=O)C1,AC50,[2],36.6 µM (active)
Cc1ccc(-n2nc(C)c(/C=N/n3c(C)nc4ccccc4c3=O)c2O)cc1,IC50,Estrogen receptor beta,> 50 µM (not active)
C=CCNC1=NN=C(c2cc(C)n(CC=C)c2C)CS1,CC50,Vero [3],> 40 µM (active)
CC1CCC(C(C)C)C(OC(=O)COC(=O)c2ccc(N)cc2)C1 (stereo not drawn),IC50,[4],> 64 µM (inactive)
CCOc1ccccc1N1CCN(C2=C(NS(=O)(=O)c3cccs3)C(=O)c3ccccc3C2=O)CC1,CC50,Vero [3],> 40 µM (active)
COc1cc2c(cc1NC(=O)c1ccc(C(C)(C)C)cc1)CCCC2,IC50,Vero [5],8.78 µM (active)
same,CC50,[6],18.2 µM (active)
CC(C)n1cnc2c(C(=O)N[C@H]3CN4CCC3CC4)cc(Cl)cc21,AC50,Cytochrome P450 3A4 [1],inconclusive
same,AC50,Cytochrome P450 1A2,39.8 µM (inconclusive)
O=C(CSc1nnc(-c2ccco2)n1Cc1ccco1)NCc1cccs1,IC50,[7],9.55 µM (active)
CC(Oc1ccccc1F)C(=O)Nc1ccc2ccccc2c1 (stereo not drawn),IC50,Vero [5],> 6.25 µM (active)
CCOCCCN=C(S)Nc1ccc2nc(N3CCCC3)cc(C)c2c1,AC50,[2],100 µM (inactive)
N#Cc1ccc(C2=NC(C(F)(F)F)(C(F)(F)F)c3c(n(Cc4ccco4)c(=O)[nH]c3=O)N2)cc1,AC50,Cytochrome P450 3A4 [1],inconclusive
O=C(C[n+]1cccc(Br)c1)c1cccs1,IC50,[7],13.2 µM (active)
O=C(O)c1cccnc1C(=O)O [QUINOLINIC ACID],AC50,Cytochrome P450 3A4 [1],inconclusive
Cc1ccc(S(=O)(=O)N(C)C[C@@H]2OCCCC[C@@H](C)Oc3ccc(NS(=O)(=O)c4ccc(Cl)cc4)cc3C(=O)N([C@H](C)CO)C[C@H]2C)cc1,AC50,[8],> 70 µM (inactive)
same,AC50,Paired box protein Pax-8,4.4 µM (active)
O=C(C[C@@H]1C[C@@H]2c3cc(NC(=O)C4CCOCC4)ccc3O[C@@H]2[C@H](CO)O1)NCCc1ccccc1,AC50,[9],37.3 µM (active)
CC(C)CCn1cnc2c(oc3nc4c(cc32)CCCC4)c1=O,AC50,[10],> 52 µM (inactive)
same,AC50,[11],4.92 µM (active)
same,AC50,[12],3.8 µM (active)
COc1cc([N+](=O)[O-])ccc1-c1ccc(/C=C2\C(=O)ON=C2c2ccccc2)o1,CC50,Vero [3],22.1 µM (active)
Cc1cc(C)nc(NNS(=O)(=O)c2ccc(F)c(Cl)c2)n1,IC50,[13],23.9 µM (not active)
same,EC50,Beta-galactosidase,> 40 µM (inactive)
C=CCSc1nc2ccccc2n1Cc1nnc(-c2cccs2)o1,IC50,[7],0.457 µM (active)
CN1CCN(c2ccc3sc(-n4ccc5ccccc54)nc3c2)CC1,IC50,Vero [5],22.7 µM (active)
same,CC50,Vero [14],> 25 µM (active)
CCN(CC)CCCNC(=O)C1CCN(c2ncnc3c2sc2cccc(F)c23)CC1,AC50,[2],52 µM (active)
CO[C@@H]1CN(C)C(=O)c2cc(NS(=O)(=O)c3cn(C)cn3)ccc2OC[C@@H](C)N(Cc2ccc(C(F)(F)F)cc2)C[C@H]1C,AC50,[9],1.91 µM (active)
same,AC50,[15],4.85 µM (active)
same,AC50,[16],2.32 µM (active)
COc1ccc(-c2cn3ccsc3n2)cc1,IC50,Estrogen receptor beta,> 50 µM (not active)
O=C(CCNS(=O)(=O)c1cccs1)N1CCCCCC1,IC50,[4],> 64 µM (inactive)
same,AC50,Cytochrome P450 3A4 [17],20 µM (inconclusive)
same,AC50,Cytochrome P450 2C9,28.2 µM (inconclusive)
COc1ccccc1NC(=O)c1ccc(S(=O)(=O)N(C)C)cc1,IC50,[4],> 64 µM (inactive)
C[C@](O)(c1ccccc1)c1nccc2ccccc12,AC50,Cytochrome P450 2C19,3.98 µM (inconclusive)
same,AC50,Cytochrome P450 3A4 [1],inconclusive
CC1CCCC(C)N1C(=O)Nc1cccc(Cl)c1 (stereo not drawn),IC50,Estrogen receptor beta,> 50 µM (not active)
Cc1oc(-c2ccc(Cl)cc2)nc1CN1CCC(C(=O)NCc2ccco2)CC1,IC50,[4],> 64 µM (inactive)
Cc1cc(C(=O)O)ccc1-c1ccc(/C=C2\SC(=O)N(CC(=O)Nc3ccc4c(c3)OCO4)C2=O)o1,IC50,[18],> 50 µM (inactive)
same,IC50,[19],17.5 µM (active)
